# Measured values: PubChem BioAssay (NCI)
#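 Where inhibition never reached the appropriate level, the endpoint shown equals the highest concentration tested. Otherwise, values were interpolated linearly from a five-concentration, 48-hour dose response in 96-well plates. TGI denotes the concentration required for complete inhibition of growth.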 Where a SMILES comes first, the peptide text is derived from it. [ ]: non-standard residue; d: D form. pGlu = O=C1CC[CH](C(=O)O)N1; Thz = O=C(O)[CH]1CSCN1
# Key:
# Experiment in all cases: NCI-60 cell line screen, 48 h
# TK-10 renal = system: TK-10 renal
# U251 CNS = system: U251 CNS
# PC-3 prostate = system: PC-3 prostate
# SW-620 colon = system: SW-620 colon
# CCRF-CEM leukemia = system: CCRF-CEM leukemia
# HCT-116 colon = system: HCT-116 colon
# A498 renal = system: A498 renal
# T-47D breast = system: T-47D breast
# SK-MEL-5 melanoma = system: SK-MEL-5 melanoma
# 786-0 renal = system: 786-0 renal
# LOX IMVI melanoma = system: LOX IMVI melanoma
# HCT-15 colon = system: HCT-15 colon
# OVCAR-3 ovarian = system: OVCAR-3 ovarian
# NCI-H226 lung = system: NCI-H226 lung
Structure (SMILES),TGI (TK-10 renal) [µM],TGI (U251 CNS) [µM],TGI (PC-3 prostate) [µM],TGI (SW-620 colon) [µM],TGI (CCRF-CEM leukemia) [µM],TGI (HCT-116 colon) [µM],TGI (A498 renal) [µM],TGI (T-47D breast) [µM],TGI (SK-MEL-5 melanoma) [µM],TGI (786-0 renal) [µM],TGI (LOX IMVI melanoma) [µM],TGI (HCT-15 colon) [µM],TGI (OVCAR-3 ovarian) [µM],TGI (NCI-H226 lung) [µM]
CCn1c(SCC(=O)N/N=C2\SCC(=O)N2c2ccc(C)cc2)nc2ccccc2c1=O,31,46.1,54.2,> 100,> 100,35.9,38.4,54.9,50,35,55.6,> 100,62.9,64.8
Cc1nc(-c2ccccc2)cn2c1nc1ccccc12,> 74.7,36.3,69.5,99.1,> 100,> 70.9,23.5,> 24.9,28.6,50.9,> 31.6,> 68.5,69.9,41.1
CCCCCCN(CCCCCC)CCC(=O)c1ccc2cc(Br)c3ccccc3c2c1,65.2,> 100,> 100,> 100,–,> 100,> 100,60.5,96.1,> 100,98.3,> 100,> 100,> 100
COC(=O)C(CNC(=O)/C=C/c1ccc(OC)c(OC)c1)NC(=O)/C=C/c1ccc(OC)c(OC)c1 (configuration not stated),> 100,> 100,> 100,> 100,> 100,> 100,> 100,> 100,> 100,> 100,> 100,> 100,> 100,> 100
CC(C)C1CSC2N1C(=O)C2(OCc1ccccc1)C1CC1 (configuration not stated),> 100,> 100,> 100,> 100,> 100,> 100,> 100,> 100,> 100,> 100,> 100,> 100,> 100,> 100
CCOC(=O)CNC(=O)C(CCC(=O)N(C)O)NC(=O)CCC(N)C(=O)O (configuration not stated),> 100,> 100,> 100,> 100,> 100,> 100,> 100,> 100,> 100,> 100,> 100,> 100,> 100,> 100
COc1ccc(/C=N\N(C)Cc2cccc3ccsc23)cc1,> 100,> 100,> 100,> 100,> 100,> 100,> 100,> 100,> 100,> 100,> 100,> 100,> 100,> 100
C#C[C@]1(O)CC[C@H]2[C@@H]3CCC4=C/C(=N\OCCN5CCCCC5)CC[C@]4(C)[C@H]3CC[C@@]21C,22.3,33.6,17.3,29.9,> 53.8,22.2,20.5,19.3,6.19,14.9,16.5,23,16.4,39.5
Cn1c(-c2ccco2)ccc1-c1ccc(C=O)o1,> 100,> 100,> 100,> 100,> 100,53.1,> 100,> 100,> 100,> 100,> 100,> 100,> 100,> 100
CC(C)(C)c1cc(/C=C(\C#N)C2=NCCO2)cc(C(C)(C)C)c1O,16,12,7.37,18.5,9.35,11.9,16.7,9.13,5.62,14.7,18.8,13.1,7.51,20.1
O=C(OC1=CCN(Br)C1=O)C1=C(O)C(=O)N(Br)C1,> 100,58.1,> 100,65.2,> 100,35.6,> 100,45.2,33.5,30.4,54,> 100,51.6,> 100
O=C1CCC(C(=O)N2CSCC2C(=O)O)N1 (configuration not stated) ([pGlu]-[Thz]-OH; configuration not given here),> 100,–,> 100,> 100,> 100,–,> 100,> 100,> 100,> 100,> 100,> 100,> 100,> 100
COc1ccc(S(=O)(=O)Nc2ccc(-c3csc(N4C(=O)/C(=C/c5ccccc5[N+](=O)[O-])N=C4c4ccccc4)n3)cc2)cc1Cl,> 100,> 100,> 100,> 100,–,> 100,59.8,75.2,> 100,> 100,> 100,81.2,> 100,> 100
COC(NC(=O)Nc1ccc(C)cc1)(C(F)(F)F)C(F)(F)F,> 100,45,> 100,> 100,> 100,> 100,90.1,97.7,30.6,> 100,> 100,–,> 100,> 100
CC(C)(C)C1=C(Br)C(F)(C(C)(C)C)OP1(=O)c1ccccc1 (configuration not stated),33.1,31.3,32,32.3,–,31.8,40,42.1,22.9,29.6,36.4,36.9,28.8,31
C=C1C(C(=O)OC)[C@H]1C(=O)OC (some centres not stated),> 100,> 100,> 100,> 100,–,> 100,> 100,> 100,> 100,> 100,> 100,> 100,> 100,> 100
